Results reported in US10858342B2, “Bicyclic imidazole derivatives useful for the treatment of renal diseases, cardiovascular diseases and fibrotic diseases” (Boehringer Ingelheim International GmbH, priority 2016, dated 2020).
pIC50: −log10 of the molar value. Read-outs that look alike come from different tables or passages of the source.

Experiments:
Assay type in all cases: biochemical, cynomolgus monkey
[1] = target: aldosterone synthase (CYP11B2) (Macaca fascicularis, UniProt A0A2K5UPL9); experiment: Inhibition of aldosterone synthase (cynomolgus adrenal mitochondria, aldosterone by mass spectrometry); conditions: 2 μM corticosterone substrate, 50 units CYP11B2, 90 min, 37° C.; read-out: Aldosterone Inhibition IC50
Procedure: (§1) The aldosterone synthase and cortisol synthase inhibition assays employ cynomolgus adrenal gland mitochondria as the source of aldosterone synthase (CYP11B2) and cortisol synthase (CYP11B1). […] One unit of CYP11B2 and CYP11B1 activity in these preparations is defined as the amount of enzyme that generates 1 pmol of product in one hour under the conditions described.
(§2) The compounds of the invention may be evaluated for aldosterone synthase inhibition by the following assay:
(§3) Assays are performed in 96-well format in a final volume of 60 microL/well, containing 100 mM potassium phosphate, pH 7.4, 1% (v/v) DMSO, and additionally, 2 μM of corticosterone and 50 units of CYP11B2 activity. Reactions are started by the addition of NADPH to 1 mM and allowed to proceed for 90 minutes at 37° C. Reactions are terminated by the addition of 60 μL of MeCN containing an internal standard for mass spectrometry. One hundred microliters are then transferred to a glass filter plate and centrifuged at 570×g for 5 minutes and the filtrate is collected. Reaction product aldosterone is quantified by mass spectrometry. To determine the assay blank value (0% activity), NADPH is omitted from some reactions.
(§4) Dose dependent inhibition is quantified by the inclusion of compound at various concentrations. Maximum activity (100%) is defined by reactions containing NADPH, but without compound.

[2] = system: aldosterone synthase (CYP11B2); experiment: as above; conditions: selectivity for aldosterone synthase inhibition over cortisol synthase (CYP11B1) inhibition, fold
Procedure: as §1, §2, §3, §4

[3] = target: cortisol synthase (CYP11B1) (Macaca fascicularis, UniProt A0A2K5ULY1); experiment: Inhibition of cortisol synthesis (cynomolgus adrenal mitochondria, cortisol by mass spectrometry)
Procedure: The aldosterone synthase and cortisol synthase inhibition assays employ cynomolgus adrenal gland mitochondria as the source of aldosterone synthase (CYP11B2) and cortisol synthase (CYP11B1). Mitochondria are prepared from frozen cynomolgus monkey adrenal glands according to Method A described in by J. D. McGarry et al. (Biochem. J., 1983, 214, 21-28), with a final resuspension in the AT buffer described in R. Yamaguchi et al. (Cell Death and Differentiation, 2007, 14, 616-624), frozen as aliquots in liquid nitrogen and stored at −80° C. until use. One unit of CYP11B2 and CYP11B1 activity in these preparations is defined as the amount of enzyme that generates 1 pmol of product in one hour under the conditions described.
as §3
Dose dependent inhibition is quantified by the inclusion of compound at various concentrations. Maximum activity (100%) is defined by reactions containing NADPH, but without compound. Activities at each concentration are expressed as a percentage of the maximum activity (y-axis) and plotted against concentration of compound (x-axis) and the concentration corresponding to 50% activity (IC50) determined using the XLFit curve-fitting program using a 4-parameter logistic model.
Assays are performed as for aldosterone synthase except for the use of 150 units of CYP11B1, 11-deoxycortisol as substrate and cortisol measured as product.

[4] = 11-deoxycortisol substrate, 150 units CYP11B1; read-out: Cortisol Inhibition IC50
[5] = read-out: Cortisol Inhibition IC50; 11-deoxycortisol substrate, 150 units CYP11B1

aldosterone synthase (CYP11B2) (Macaca fascicularis, UniProt A0A2K5UPL9), sequence (A0A2K5UPL9 1-503): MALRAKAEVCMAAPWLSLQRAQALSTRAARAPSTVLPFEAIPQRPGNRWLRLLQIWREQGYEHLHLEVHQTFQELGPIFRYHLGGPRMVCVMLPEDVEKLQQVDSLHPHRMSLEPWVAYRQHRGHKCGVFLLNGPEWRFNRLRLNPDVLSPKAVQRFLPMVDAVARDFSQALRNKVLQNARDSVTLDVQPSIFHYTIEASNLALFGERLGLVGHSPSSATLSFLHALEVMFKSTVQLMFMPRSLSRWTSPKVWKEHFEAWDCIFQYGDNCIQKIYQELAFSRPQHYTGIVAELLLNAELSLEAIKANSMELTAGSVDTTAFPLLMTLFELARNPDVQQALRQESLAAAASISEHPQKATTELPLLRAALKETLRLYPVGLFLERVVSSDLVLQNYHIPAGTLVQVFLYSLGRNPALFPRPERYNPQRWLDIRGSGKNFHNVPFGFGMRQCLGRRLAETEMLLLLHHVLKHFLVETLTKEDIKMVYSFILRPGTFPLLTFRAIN

Compound	pIC50 [1]	Selectivity [2]	pIC50 [3, 4]	pIC50 [3, 5]
CCO[C@H]1C[C@H](n2cnc3c2C(=O)CC(C)(C)C3)C12CCC2 (relative stereo) [C-ADM, 3-((1S,3S)-3-Ethoxy-spiro[3.3]hept-1-yl)-6,6-dimethyl-3,5,6,7-tetrahydro-benzoimidazol-4-one]	7.14	420	< 4.52	
O=C1CC2(CCC2)Cc2ncn(-c3ccc(F)c(F)c3)c21 [C-ACE]	7.70	32	6.20	
CC1(C)CC(=O)c2c(ncn2CC2CC2)C1 [C-ADA, 3-Cyclopropylmethyl-6,6-dimethyl-3,5,6,7-tetrahydro-benzoimidazol-4-one]	6.28	23	4.92	
COC(=O)c1ccc(-n2cnc3c2C(=O)CC(C)(C)C3)cc1 [C-ABW, 4-(5,5-Dimethyl-7-oxo-4,5,6,7-tetrahydro-benzoimidazol-1-yl)-benzoic acid methyl ester]	6.51	24	5.12	
Cn1ncc2c1CC(n1cnc3c1C(=O)CCC3)CC2 (stereo not drawn) [C-AEF, 3-(1-Methyl-4,5,6,7-tetrahydro-1H-indazol-6-yl)-3,5,6,7-tetrahydro-benzoimidazol-4-one]	6.72	160	< 4.52	
CC1(C)CC(=O)c2c(ncn2-c2cccc(Cl)c2)C1 [C-ABK, 3-(3-Chloro-phenyl)-6,6-dimethyl-3,5,6,7-tetrahydro-benzoimidazol-4-one]	7.72	370	5.15	
N#Cc1ccc(-n2cnc3c2C(=O)CCC3)c(C2CC2)c1 [C-AAK, 3-Cyclopropyl-4-(7-oxo-4,5,6,7-tetrahydro-benzoimidazol-1-yl)-benzonitrile]	7.47	500	4.77	
CC1(C)CC(=O)c2c(ncn2C2CCc3ccccc3C2)C1 (stereo not drawn) [C-ADH, 6,6-Dimethyl-3-(1,2,3,4-tetrahydro-naphthalen-2-yl)-3,5,6,7-tetrahydro-benzoimidazol-4-one]	8.00	2900	4.54	
3-(4-Cyanophenyl)-6,6-(3-tetrahydrofuran)-3,5,6,7-benzimidiazolo-4-one [C-ABA-B]	7.80	53	6.07	
3-(4-Chloroophenyl)-6,6-spirocyclopropyl-3,5,6,7-tetrahydro-benzimidazolo-4-one [C-ACF]	8.00	57	6.23	
CC(=O)c1ccc(-n2cnc3c2C(=O)CC(C)(C)C3)cc1 [C-ABL, 3-(4-Acetyl-phenyl)-6,6-dimethyl-3,5,6,7-tetrahydro-benzoimidazol-4-one]	7.23	150	5.06	
O=C1CC2(CCOCC2)Cc2ncn(-c3ccc(Cl)cc3)c21 [C-AAR, 3-(4-Chloro-phenyl)-6,6-3-o-tetrahydropyran-3,5,6,7-tetrahydro-benzoimidazol-4-one]	7.16	73	5.30	
CN(CCO)C(=O)c1ccc(Cn2cnc3c2C(=O)CC(C)(C)C3)cc1 [C-ADS, 4-(5,5-Dimethyl-7-oxo-4,5,6,7-tetrahydro-benzoimidazol-1-ylmethyl)-N-(2-hydroxy-ethyl)-N-methyl-benzamide]	6.54	150	4.37	
CC1(C)CC(=O)c2c(ncn2-c2ccc(F)c(F)c2)C1 [C-ABC, 3-(3,4-Difluoro-phenyl)-6,6-dimethyl-3,5,6,7-tetrahydro-benzimidazol-4-one]	8.00	63	6.19	
N#Cc1ccc(-n2cnc3c2C(=O)CC2(CC2)C3)cc1Cl [C-AAW, 3-(3-Chloro-4-cyano)-6,6-spirocyclopropyl-3,5,6,7-tetrahydrobenzimidazol-4-one]	8.30	43		6.66
CC1(C)CC(=O)c2c(ncn2C2CCc3cc(C#N)ccc3C2)C1 (stereo not drawn) [C-ADN, 6-(5,5-Dimethyl-7-oxo-4,5,6,-tetrahydro-benzoimidazol-1-yl)-5,6,7,8-tetrahydro-naphthalene-2-carbonitrile]	6.72	160	< 4.52	
CC1(C)CC(=O)c2c(ncn2-c2ccc(F)c(Cl)c2)C1 [C-ABI, 3-(3-Chloro-4-fluoro-phenyl)-6,6-dimethyl-3,5,6,7-tetrahydro-benzoimidazol-4-one]	8.32	190	6.04	
N#Cc1ccc(-n2cnc3c2C(=O)C[C@@H](C(N)=O)C3)cc1Cl [C-AEB-A, (S)-1-(3-Chloro-4-cyano-phenyl)-7-oxo-4,5,6,7-tetrahydro-1H-benzoimidazole-5-carboxylic acid amide]	6.23	51		< 4.52
Cn1c(=O)oc2cc(-n3cnc4c3C(=O)CCC4)ccc21 [C-AAM, 3-Methyl-6-(7-oxo-4,5,6,7-tetrahydro-benzoimidazol-1-yl)-3H-benzooxazol-2-one]	6.92	240	< 4.52	
CN(C)c1ccc(-n2cnc3c2C(=O)CC(C)(C)C3)cc1 [C-ABO, 3-(4-Dimethylamino-phenyl)-6,6-dimethyl-3,5,6,7-tetrahydro-benzoimidazol-4-one]	6.89	270	4.46	
CC1(C)CC(=O)c2c(ncn2-c2ccc(Cl)cc2Cl)C1 [C-ABG, 3-(2,4-Dichloro-phenyl)-6,6-dimethyl-3,5,6,7-tetrahydro-benzoimidazol-4-one]	8.38	120	6.30	
CC1(C)CC(=O)c2c(ncn2CC2CCCCC2)C1 [C-ACP, 3-Cyclohexylmethyl-6,6-dimethyl-3,5,6,7-tetrahydro-benzoimidazol-4-one]	7.62	240	5.23	
O=C1CCCc2ncn(C3Cc4ccccc4C3)c21 [C-ADK, 3-Indan-2-yl-3,5,6,7-tetrahydro-benzoimidazol-4-one]	7.68	400	5.08	
CC1(C)CC(=O)c2c(ncn2-c2ccc(Cl)c(F)c2)C1 [C-ABM, 3-(4-Chloro-3-fluoro-phenyl)-6,6-dimethyl-3,5,6,7-tetrahydro-benzoimidazol-4-one]	8.33	160	6.11	
CC1(C)CCc2ncn(-c3ccc(C#N)cc3)c2C1=O [C-ADX, 4-(6,6-Dimethyl-7-oxo-4,5,6,7-tetrahydro-benzoimidazol-1-yl)-benzonitrile]	7.85	153	5.67	
CC1(C)CC(=O)c2c(ncn2C2CC(c3ccccc3)C2)C1 (stereo not drawn) [C-ACU, 6,6-Dimethyl-3-(3-phenyl-cyclobutyl)-3,5,6,7-tetrahydro-benzoimidazol-4-one]	6.96	85	5.03	
Cn1ncc2cc(-n3cnc4c3C(=O)CCC4)ccc21 [C-AAG, 3-(1-Methyl-1H-indazol-5-yl)-3,5,67,-tetrahydro-benzoimidazol-4-one]	7.00	300	< 4.52	
CN1C[C@@H](n2cnc3c2C(=O)CC(C)(C)C3)CCC1=O [C-ACR, 6,6-Dimethyl-3-((S)-1-methyl-6-oxo-piperidin-3-yl)-3,5,6,7-tetrahydrobenzoimidazol-4-one]	6.11	38	< 4.52	
